Reference: BigSolDB 2.1

CS(=O)(=O)c1ccc([C@@H](O)[C@@H](CF)NC(=O)C(Cl)Cl)cc1
Details | solubility (mole fraction)
in THF, 279.65 K | 0.0293
in THF, 284.55 K | 0.0317
in THF, 289.35 K | 0.0342
in THF, 294.5 K | 0.0374
in THF, 297.65 K | 0.0398
in acetone, 279.25 K | 0.0261
in acetone, 284.35 K | 0.0294
in acetone, 289.1 K | 0.0327
in acetone, 294.45 K | 0.0368
in acetone, 297.75 K | 0.0396
in ethanol, 278.55 K | 0.00126
in ethanol, 283.45 K | 0.00153
in ethanol, 288.8 K | 0.00212
in ethanol, 293.7 K | 0.00259
in ethanol, 298.45 K | 0.00315
in methanol, 278.55 K | 0.00408
in methanol, 283.5 K | 0.00488
in methanol, 288.85 K | 0.00598
in methanol, 293.8 K | 0.00724
in methanol, 298.65 K | 0.00878
in n-propanol, 278.35 K | 0.0008
in n-propanol, 284.05 K | 0.00106
in n-propanol, 289 K | 0.00134
in n-propanol, 293.5 K | 0.00165
in n-propanol, 298.65 K | 0.00211
in water, 278.8 K | 2.48e-05
in water, 283.85 K | 2.86e-05
in water, 289.1 K | 3.62e-05
in water, 293.95 K | 4.64e-05
in water, 298.7 K | 5.49e-05
